Source: ChEMBL document CHEMBL1155034, “Constituents of the root wood of Zanthoxylum wutaiense with antitubercular activity” (2008)
Values after ≈ are worked out from the molar mass of the structure shown.

Each compound was assayed on Mycobacterium tuberculosis (assay: Antitubercular activity against Mycobacterium tuberculosis H37Rv after 2 weeks). Conditions: 336 h.
Assay type: functional
In the case of `COc1cc(/C=C/C=O)cc2ccoc12`, the MIC is reported as 35 µg/mL (≈ 173 µM).
`COc1cc(CCCO)cc2ccoc12` gave an MIC of 50 µg/mL (≈ 242 µM).
With `COC(=O)c1cc2c(c(OC)c1)O[C@H](C(C)(C)O)C2` the MIC was 35 µg/mL (≈ 131 µM).
`COc1c2ccccc2nc2occc12` [DICTAMNINE] was tested, and the MIC was 30 µg/mL (≈ 151 µM).
`CC[C@@H](CO)NCCN[C@@H](CC)CO` [ETHAMBUTOL] showed an MIC of 6.25 µg/mL (≈ 30.6 µM).
For `COc1c2ccoc2nc2c(OC)cccc12` [GAMMA-FAGARINE], the MIC was 30 µg/mL (≈ 131 µM).
With `COC(=O)/C=C/c1ccc2c(c1)C[C@@H](C(C)(C)O)O2` [METHYL DEMETHOXYWUTAIENSATE] the MIC was 50 µg/mL (≈ 191 µM).
For `CC(C)=CCOc1ccc(C(=O)O)cc1` [VALENCIC ACID], the MIC was 45 µg/mL (≈ 218 µM).
For `COc1cc(/C=C/C=O)cc2c1O[C@H](C(C)(C)O)C2` [WUTAIENSAL], the MIC was 30 µg/mL (≈ 114 µM).
